# Measurements: patent US5846755A (priority 1995, dated 1998)
# Where two headings read alike, the source gives them in different places. Square brackets hold non-standard residues; d marks the D form. Peptide text beside a SMILES is read from it. * marks the point of attachment. Pip = O=C(O)[C@@H]1CCCCN1; Cbz = O=C(OCc1ccccc1)*
# Tests used:
# [1] = biological target: T1, recombinant human gelatinase A (Homo sapiens, UniProt P08253); test: In vitro effects on recombinant human gelatinase A; format: biochemical
# T1 construct: purchased Strangeways Laboratories, Cambridge, UK
# T1 sequence (P08253 110-660): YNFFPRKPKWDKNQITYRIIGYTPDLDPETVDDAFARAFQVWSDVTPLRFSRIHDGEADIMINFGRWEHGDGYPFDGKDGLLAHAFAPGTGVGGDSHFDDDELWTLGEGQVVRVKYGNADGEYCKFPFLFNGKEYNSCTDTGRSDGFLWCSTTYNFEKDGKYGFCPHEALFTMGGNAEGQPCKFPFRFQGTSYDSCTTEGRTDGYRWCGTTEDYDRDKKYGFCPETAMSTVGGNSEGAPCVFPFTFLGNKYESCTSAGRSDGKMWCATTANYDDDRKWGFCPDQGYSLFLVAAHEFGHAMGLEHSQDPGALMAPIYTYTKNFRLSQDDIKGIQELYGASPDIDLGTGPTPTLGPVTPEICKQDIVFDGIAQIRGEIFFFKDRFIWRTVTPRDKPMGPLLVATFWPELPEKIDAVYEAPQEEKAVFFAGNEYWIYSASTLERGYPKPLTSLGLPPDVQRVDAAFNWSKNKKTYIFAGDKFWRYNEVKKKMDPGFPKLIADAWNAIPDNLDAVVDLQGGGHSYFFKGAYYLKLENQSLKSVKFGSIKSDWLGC
# From the text: Assays on human gelatinase A, an enzyme released in high concentration by any kind of tumor cells during the process of metastatization, and recognized also as a product of stimulated cells in many pathological processes, have been performed using the protein obtained by recombinant biotechnology (Strangeways Laboratories, Cambridge, UK). The enzymatic activity has been followed over time, measuring the amount of fluorescent substrate cleaved by the enzyme, in the presence or absence of synthetic compounds (Perkin Elmer L50 B fluorimeter).
# [2] = biological target: neutrophil collagenase (recombinant human) (Homo sapiens, UniProt P22894); test: In vitro assays on recombinant human collagenase; format: biochemical
# Chain of neutrophil collagenase (recombinant human) (P22894 101-467): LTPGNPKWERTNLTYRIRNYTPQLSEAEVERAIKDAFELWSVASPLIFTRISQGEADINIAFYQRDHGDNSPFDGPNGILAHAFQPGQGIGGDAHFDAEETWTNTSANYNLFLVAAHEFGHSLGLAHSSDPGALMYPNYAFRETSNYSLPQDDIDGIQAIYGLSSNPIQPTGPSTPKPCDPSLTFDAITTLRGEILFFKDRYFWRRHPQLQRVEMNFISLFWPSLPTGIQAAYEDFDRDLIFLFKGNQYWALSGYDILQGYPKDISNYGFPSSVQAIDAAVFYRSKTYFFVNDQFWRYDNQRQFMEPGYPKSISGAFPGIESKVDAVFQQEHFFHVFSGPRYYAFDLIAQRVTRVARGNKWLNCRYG
# Procedure: Using the same enzymatic determination already described (fluorimetric detection of cleavage of a substrate peptide containing a fluorescent moiety), some of the compounds were tested on neutrophil collagenase, an enzyme described as participating in any kind of inflammatory reaction in mammalian bodies. In this case, the purified enxzyme was also obtained by recombinant means.
# [3] = Resistance to proteolytic activity in stomach juices (rat stomach homogenate, HPLC); details: 37° C.
# Procedure: To check if the compounds of the present invention are resistant to proteolytic activity in stomach juices and, therefore, could be administered orally, the stomachs of fasting rats were homogenized in physiological solutions (1:1). 300 microliters of solutions of the compounds (1 mg/ml of saline) were incubated with 0.5 ml of stomach homogenates (37° C.).
# [4] = biological target: enzyme purified from the venom of Crotalus Adamanteus (hemorrhagin) (Crotalus adamanteus, UniProt P34179); format: biochemical
# Chain of enzyme purified from the venom of Crotalus Adamanteus (hemorrhagin) (P34179 whole entry, looked up): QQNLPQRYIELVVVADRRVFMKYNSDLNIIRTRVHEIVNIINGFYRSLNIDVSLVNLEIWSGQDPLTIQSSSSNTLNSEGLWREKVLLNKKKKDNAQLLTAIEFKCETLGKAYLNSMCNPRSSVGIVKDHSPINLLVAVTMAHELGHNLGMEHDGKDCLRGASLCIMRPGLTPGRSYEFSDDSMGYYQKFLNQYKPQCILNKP
# [5] = biological target: T2, recombinant human gelatinase B (Homo sapiens, UniProt P14780); test: In vitro effects on recombinant human gelatinase B; format: biochemical
# T2 construct: purchased Stangeways Laboratories, Cambridge, UK (so in the source)
# T2 sequence (P14780 94-707): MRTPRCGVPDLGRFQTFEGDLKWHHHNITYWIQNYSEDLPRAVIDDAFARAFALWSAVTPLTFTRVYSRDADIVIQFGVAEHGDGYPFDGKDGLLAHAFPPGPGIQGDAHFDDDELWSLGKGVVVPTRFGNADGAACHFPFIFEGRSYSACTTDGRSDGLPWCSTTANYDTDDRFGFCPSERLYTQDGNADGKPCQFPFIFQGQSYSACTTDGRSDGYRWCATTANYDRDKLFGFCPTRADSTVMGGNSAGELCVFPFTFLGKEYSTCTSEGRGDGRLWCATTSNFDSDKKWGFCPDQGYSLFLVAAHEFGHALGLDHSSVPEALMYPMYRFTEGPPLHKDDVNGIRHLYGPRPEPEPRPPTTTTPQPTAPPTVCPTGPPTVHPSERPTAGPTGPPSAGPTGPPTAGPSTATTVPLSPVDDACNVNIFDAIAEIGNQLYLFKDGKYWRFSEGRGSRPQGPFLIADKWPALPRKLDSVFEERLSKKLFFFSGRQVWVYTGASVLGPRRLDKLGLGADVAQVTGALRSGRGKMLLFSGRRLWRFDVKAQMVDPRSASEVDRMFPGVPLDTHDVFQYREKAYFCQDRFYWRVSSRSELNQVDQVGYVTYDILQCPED
# Procedure: Assays on human gelatinase B, another enzyme released by tumor cells, were performed using also, in this case, the protein obtained by recombinant biotechnology Stangeways Laboratories, Cambridge, UK). As usual, the enzymatic activity was followed over time, measuring the amount of fluorescent substrate cleaved by the enzyme, in the presence or absence of synthetic compounds (Perkin Elmer L50 B fluorimeter).
# [6] = system: human melanoma cell line VMM-5; test: Matrigel-based invasion assay with human melanoma cells; format: cell-based; details: Concentration 500 micro M, VMM-5 cells, 20 hours
# From the text: In order to obtain information about the possible interference of the synthesized compounds on the ability of tumor cells to migrate through the body (metastatization), the human melanoma cell line VMM-5 was used in the matrigel-based invasion assay, in which basal membrane matrigel (Becton Dickinson) and tissue culture inserts with 8 microns pore size in 24 well tissue culture plates were used as Boyden chambers. The chambers were coated with diluted matrigel and allowed to dry overnight; they were then reconstituted with serum free medium, and melanoma cells (4,000,000/ml) were dispensed in each insert. In the lower chambers, a chemoattractant was included. The chambers were finally placed in a humidified CO2 incubator at 37° C., and incubated for 20 hours. The inserts were dried and the cells on the upper surface removed. The polycarbonate filters were fixed with methanol, stained with hematoxylin and eosin, and counted with a microscope. Inhibition of migration due to compounds has been expressed as a percentage of the total number of migrated cells in the control chambers containing only the buffer in which the compounds were dissolved.
compound,measurement,setting,value
CC(C)C[C@H](NC(=O)c1ccc[nH]1)C(=O)N[C@@H](Cc1c[nH]c2ccccc12)C(=O)O [Pirr--Leu--Trp],% Inhibition,[1]; Concentration 9.0 × 10^-6 M,33%
same,% Inhibition,[2]; Concentration 1.1 × 10^-5 M,15%
2-FUR--(L)--Phe--(S)--Cyt--OH [Compound 11],% Inhibition,[1]; Concentration 8.7 × 10^-7 M,40%
same,% Inhibition,[2]; Concentration 2.2 × 10^-5 M,27%
same,Residue after 60 Minutes,[3],100%
same,Residue after 120 Minutes,[3],> 95%
same,IC50,[4]; read-out: IC50,0.053 µM
"COc1ccc2[nH]c(C(=O)N[C@@H](CC(C)C)C(=O)N3Cc4[nH]c5ccccc5c4C[C@H]3C(=O)O)cc2c1 [Compound 17, 5-MIC--(L)--Leu--(S)--Cyt--OH]",IC50,[4],0.023 µM
"CC(C)C[C@H](NC(=O)c1ccncc1)C(=O)N1Cc2[nH]c3ccccc3c2C[C@H]1C(=O)O [Compound 29, 4-NIC--(L)--Leu--(S)--Cyt--OH]",IC50,[4]; read-out: IC50,0.4 µM
BZS--(L)--Phe--(S)--Cyt--OH [Compound 32],% Inhibition,[5]; Concentration 1.0 × 10^-5 M,42%
same,IC50,[4]; read-out: IC50,2 µM
MePro--Leu--Cyt,% Inhibition,[5]; Concentration 1.1 × 10^-5 M,37%
same,% Inhibition of Invasion,[6],40%
"COc1cc(C(=O)N[C@@H](CC(C)C)C(=O)N2Cc3[nH]c4ccccc4c3C[C@H]2C(=O)O)nc2ccccc12 [Compound 6, 4-MQC--(L)--Leu--(S)--Cyt--OH]",IC50,[4]; read-out: IC50,0.05 µM
CC(C)C[C@H](NC(=O)c1cccs1)C(=O)N[C@@H](Cc1c[nH]c2ccccc12)C(=O)O [Tiof--Leu--Trp],% Inhibition,[1]; Concentration 8.0 × 10^-6 M,60%
"COc1ccc2[nH]c(C(=O)N[C@@H](CC3CCCCC3)C(=O)N3Cc4[nH]c5ccccc5c4C[C@H]3C(=O)O)cc2c1 [Compound 1, 5--MIC--Cha--(S)--Cyt--OH]",inhibition at 0.7 µM,[1]; Concentration 7.0 × 10^-7 M,25%
same,IC50,[4],0.029 µM
"CC(C)C[C@H](NC(=O)c1cc2cc(O)ccc2[nH]1)C(=O)N1Cc2[nH]c3ccccc3c2C[C@H]1C(=O)O [Compound 7, 5-HIC--(L)--Leu--(S)--Cyt--OH]",IC50,[4]; read-out: IC50,0.023 µM
"NC(=O)C[C@H](NC(=O)c1ccco1)C(=O)N1Cc2[nH]c3ccccc3c2C[C@H]1C(=O)O [Compound 35, 2-FUR--(L)--Asn--(S)--Cyt--OH]",IC50,[4]; read-out: IC50,8 µM
"O=C(N[C@@H](Cc1c[nH]c2ccccc12)C(=O)N1Cc2[nH]c3ccccc3c2C[C@H]1C(=O)O)c1ccco1 [Compound 34, 2-FUR--(L)--Trp--(S)--Cyt--OH]",IC50,[4]; read-out: IC50,0.4 µM
"CC(C)C[C@H](NC(=O)c1nccnc1N)C(=O)N1Cc2[nH]c3ccccc3c2C[C@H]1C(=O)O [Compound 4, 3-APZC--(L)--Leu--(S)--Cyt--OH]",IC50,[4]; read-out: IC50,0.057 µM
"COc1ccc(C(=O)N[C@@H](CC(C)C)C(=O)N2Cc3[nH]c4ccccc4c3C[C@H]2C(=O)O)c(OC)c1 [Compound 24, 2,4-Dimethoxybenzoyl--(L)--Leu--(S)--Cyt--OH]",% Inhibition,[2]; Concentration 2.0 × 10^-5 M,19%
same,% Inhibition,[5]; Concentration 1.0 × 10^-5 M,48%
same,% Inhibition of Invasion,[6],100%
same,IC50,[4]; read-out: IC50,0.098 µM
"CC(C)C[C@H](NC(=O)c1ccoc1)C(=O)N1Cc2[nH]c3ccccc3c2C[C@H]1C(=O)O [Compound 13, 3-Furoyl--(L)--Leu--(S)--Cyt--OH]",% Inhibition,[1]; Concentration 9.4 × 10^-7 M,41%
same,IC50,[4]; read-out: IC50,0.4 µM
"Cc1cnc(C(=O)N[C@@H](CC(C)C)C(=O)N2Cc3[nH]c4ccccc4c3C[C@H]2C(=O)O)cn1 [Compound 21, 5-MPZ--(L)--Leu--(S)--Cyt--OH]",% Inhibition,[5]; Concentration 5.5 × 10^-6 M,43%
same,IC50,[4]; read-out: IC50,0.044 µM
"COc1cccc2cc(C(=O)N[C@@H](CC(C)C)C(=O)N3Cc4[nH]c5ccccc5c4C[C@H]3C(=O)O)oc12 [Compound 5, 7-MBF--(L)--Leu--(S)--Cyt--OH]",IC50,[4]; read-out: IC50,0.094 µM
"CC(C)C[C@H](NC(=O)c1ccc(Cl)cc1)C(=O)N1Cc2[nH]c3ccccc3c2C[C@H]1C(=O)O [Compound 27, 4-CBZ--(L)--Leu--(S)--Cyt--OH]",% Inhibition,[2]; Concentration 2.1 × 10^-5 M,28%
same,IC50,[4]; read-out: IC50,0.1 µM
"CC(C)C[C@H](NC(=O)c1cccc2ccccc12)C(=O)N1Cc2[nH]c3ccccc3c2C[C@H]1C(=O)O [Compound 37, 1-NAF--(L)--Leu--(S)--Cyt--OH]",IC50,[4]; read-out: IC50,0.21 µM
"CC(C)C[C@H](NC(=O)c1ccc([N+](=O)[O-])cc1)C(=O)N1Cc2[nH]c3ccccc3c2C[C@H]1C(=O)O [Compound 26, 4-NBZ--(L)--Leu--(S)--Cyt--OH]",Residue after 60 Minutes,[3],100%
same,Residue after 120 Minutes,[3],> 95%
same,IC50,[4]; read-out: IC50,0.095 µM
"CC(C)C[C@H](NC(=O)CSc1ncccn1)C(=O)N1Cc2[nH]c3ccccc3c2C[C@H]1C(=O)O [Compound 2, 2-PMTA--(L)--Leu--(S)--Cyt--OH]",IC50,[4]; read-out: IC50,0.23 µM
"COc1ccc2[nH]c(C(=O)N[C@@H](Cc3c[nH]c4ccccc34)C(=O)N3Cc4[nH]c5ccccc5c4C[C@H]3C(=O)O)cc2c1 [Compound 14, 5-MIC--(L)--Trp--(S)--Cyt--OH]",% Inhibition,[1]; Concentration 6.0 × 10^-7 M,37%
same,IC50,[4]; read-out: IC50,0.047 µM
"CC(C)C[C@H](NC(=O)[C@@H](N)CCO)C(=O)N1Cc2[nH]c3ccccc3c2C[C@H]1C(=O)O [Compound 12, (L)--HomoSer--(L)--Leu--(S)--Cyt--OH]",IC50,[4]; read-out: IC50,5 µM
"COc1ccc2[nH]c(C(=O)N[C@@H](Cc3ccccc3)C(=O)N3Cc4[nH]c5ccccc5c4C[C@H]3C(=O)O)cc2c1 [Compound 8, 5-MIC--(L)--Phe--(S)--Cyt--OH]",IC50,[4]; read-out: IC50,0.1 µM
"COc1ccc(C(=O)N[C@@H](CC(C)C)C(=O)N2Cc3[nH]c4ccccc4c3C[C@H]2C(=O)O)cc1OC [Compound 30, 3,4-DMB--(L)--Leu--(S)--Cyt--OH]",Residue after 60 Minutes,[3],100%
same,Residue after 120 Minutes,[3],> 95%
same,IC50,[4]; read-out: IC50,0.38 µM
"O=C(NCCCC[C@H](NC(=O)c1ccco1)C(=O)N1Cc2[nH]c3ccccc3c2C[C@H]1C(=O)O)OCC1c2ccccc2-c2ccccc21 [Compound 36, 2-FUR--(L)--Lys(Fmoc)--(S)--Cyt--OH]",IC50,[4]; read-out: IC50,0.1 µM
"CC(C)C[C@H](NC(=O)c1cccnc1)C(=O)N1Cc2[nH]c3ccccc3c2C[C@H]1C(=O)O [Compound 28, 3-NIC--(L)--Leu--(S)--Cyt--OH]",IC50,[4]; read-out: IC50,0.1 µM
"CC(C)C[C@H](NC(=O)CSc1ccncc1)C(=O)N1Cc2[nH]c3ccccc3c2C[C@H]1C(=O)O [Compound 3, 4-PTA--(L)--Leu--(S)--Cyt--OH]",% Inhibition of Invasion,[6],69%
same,Residue after 60 Minutes,[3],100%
same,Residue after 120 Minutes,[3],> 95%
same,IC50,[4]; read-out: IC50,0.36 µM
"COc1ccccc1CC(=O)N[C@@H](CC(C)C)C(=O)N1Cc2[nH]c3ccccc3c2C[C@H]1C(=O)O [Compound 19, 2-MPA--(L)--Leu--(S)--Cyt--OH]",IC50,[4]; read-out: IC50,0.26 µM
"CC(C)C[C@H](NC(=O)c1ccc2ccccc2n1)C(=O)N1Cc2[nH]c3ccccc3c2C[C@H]1C(=O)O [Compound 16, 2-QIC--(L)--Leu--(S)--Cyt--OH]",% Inhibition,[1]; Concentration 8.0 × 10^-7 M,23%
same,% Inhibition,[5]; Concentration 1.0 × 10^-5 M,51%
same,IC50,[4]; read-out: IC50,0.028 µM
CC(C)C[C@H](NC(=O)[C@@H]1CCCCN1C(=O)OCc1ccccc1)C(=O)N[C@@H](Cc1c[nH]c2ccccc12)C(=O)O [Z--Pip--Leu--Trp] (Cbz-[Pip]-Leu-Trp-OH),% Inhibition,[1]; Concentration 9.0 × 10^-6 M,63%
"CCOc1ccccc1C(=O)N[C@@H](CC(C)C)C(=O)N1Cc2[nH]c3ccccc3c2C[C@H]1C(=O)O [Compound 20, 2-EBZ--(L)--Leu--(S)--Cyt--OH]",IC50,[4]; read-out: IC50,0.13 µM
MePro--Ala--Cyt,% Inhibition,[1]; Concentration 9.0 × 10^-6 M,39%
"COc1ccc2c(c1)C(CC(=O)NC(CC(C)C)C(=O)N1Cc3[nH]c4ccccc4c3CC1C(=O)O)CC2=O (mixture of isomers) [Compound 23, 5-MIA--(L)--Leu--(S)--Cyt--OH]",% Inhibition,[1]; Concentration 8.0 × 10^-7 M,40%
same,IC50,[4]; read-out: IC50,0.075 µM
